Data published in patent US20090325871A1, “Role of the Mk2 Pathway in Wound Repair” (priority 2006, published 2009).
“Also recorded” adds a separate entry of the source.

What was measured:
Assay type in all cases: cell-based, mouse
[1] = test system: SRE promoter; test: SRE-luciferase promoter-reporter assay in WT MEF; conditions: TGFβ 1 ng/mL
Method: (§1) For SRE promoter-reporter assays WT and MK2^−/− MEF, were transfected with the SRE.L-luciferase vector which contains two copies of SRE.L, a derivative of c-fos serum response element driving the expression of luciferase. The SRE.L vector was introduced alone in the case of WT MEF, and co-transfected with pMEpuro (a selection vector which confers resistance to puromycin to eukaryotic cells) in the case of MK2^−/− MEF. The vectors were introduced (5 μg of SRE.L, and 0.5 μg pMEpuro) into MEF using lipofectamine. Stable transfected WT MEF cell lines were obtained by selection with geneticin, and resistant colonies were isolated, expanded, and then screened for baseline luciferase activity. Since the MK2^−/− MEF were already resistant to geneticin, stable transfectants produced by co-transfection with pMEpuro were selected with puromycin, and resistant clones were isolated and expanded as above. The firefly luciferase activity was assayed using a kit from Promega (Madison, Wis.) according to the manufacturer's instructions. In brief, cells were lysed and the substrate (beetle luciferin) was added to the lysate. Next, chemiluminescence was measured using a luminometer.
Since smα induction by several agents including TGFβ has been reported to occur through activation of serum response elements (SRE) in the smα promoter, whether this activation occurs in WT MEF was tested.

[2] = test system: SRE promoter; test: SRE-luciferase promoter-reporter assay in MK2−/− MEF; conditions: TGFβ 1 ng/mL
Method: as §1
Since MK2 has been reported to phosphorylate SRF, whether the effect of MK2 suppression on smα expression is due to its effect on the SRE promoter was tested. […]

[3] = test system: WT MEF; test: smα-actin protein level by Western blot in WT MEF; conditions: TGFβ 1 ng/mL for 24 hours
Method: (§2) Aliquots from the cell lysates prepared as described above were assayed for protein using the Bradford protein assay and then diluted with 2× Laemmli loading buffer for SDS-PAGE. Equal amounts of protein were then loaded in each well of 4-20% Tris/glycine gels. After electrophoresis for 90 min at 125 V constant voltage, the gel was blotted onto an Immobilon-P membrane by electrophoretic transfer at 25 V constant voltage overnight. The membrane was then washed, blocked with 5% milk, and probed with antibodies against MK2 (Cell Signaling, Beverly, Mass.) smα (Sigma, St. Louis, Mo.) or pan-actin (Santa Cruz, Santa Cruz, Calif.). The immunoreactive bands were visualized using a secondary antibody conjugated to horseradish peroxidase (Pierce, Rockford, Ill.).and a chemiluminescent substrate according to the manufacturer's instructions (SuperSignal, Pierce, Rockford, Ill.). The intensity of the bands was quantified using a UnScanIt software (Orem, Utah).
(§3) TGFβhas been implicated in the fibrotic response because of its ability to induce differentiation of fibroblasts into myofibroblasts. Whether TGFβ can induce myofibroblast differentiation in both WT MEF and MK2^−/− MEF was tested. Cells were growth arrested in serum free media for 24 hr then exposed to TGFβ (1 ng/mL).

[4] = test system: WT MEF; test: procollagen type I α1 mRNA level by RT-PCR in WT MEF; conditions: TGFβ 1 ng/mL for 24 hours
Method: (§4) Semiquantitative RT-PCR to measure mRNA in mouse MEF was used. In brief, RNA was isolated from treated or untreated MEF using the RNeasy kit (Qiagen, Valencia, Calif.) according to manufacturesr's instructions. The amount of RNA was determined spectrophotometrically, and equal amounts were used to generate cDNA by reverse transcription using the Superscript III system (Invitrogen, Carlsbad, Calif.) according to manufacturer's instructions. Next an equal volume of the cDNA was added to a master mix containing the following primers. For sma, the primers 5′-GCATCCACGAAACCACCTA-3′ and 5′-[…]-3′ were used to generate a 418 bp PCR product from mouse smooth muscle α-actin cDNA. For β-actin, the primers 5′-[…]-3′ and 5′-[…]-3′) were used to generate 348 bp product from mouseβ-actin cDNA. The primers 5′-[…]-3′ and 5′-[…]3′ were used to generate a 142 bp product from mouse procollagen type I alpha 1 cDNA. The PCR reaction was carried out as using a Bio-Rad I-cycler thermal cycler (Hercules, Calif.). […] After staining with ethidium bromide, photographs of the gels were taken, scanned, and the intensity of the bands was measured using UnScanIt software (Orem, Utah). The relative amount of smα and procollagen RNA was determined by dividing the intensity of their corresponding PCR product band by the intensity of the β-actin PCR product band.

[5] = test system: MK2−/− MEF; test: smα mRNA level by semiquantitative RT-PCR in MK2−/− MEF; conditions: TGFβ 1 ng/mL for 24 hours
Method: as §4

[6] = test system: MK2−/− MEF; test: procollagen type I α1 mRNA level by RT-PCR in MK2−/− MEF; conditions: TGFβ 1 ng/mL for 24 hours
Method: as §4

[7] = test system: WT MEF; test: smα mRNA level by semiquantitative RT-PCR in WT MEF; conditions: TGFβ 1 ng/mL for 24 hours
Method: as §4

[8] = test system: MK2−/− MEF; test: smα-actin protein level by Western blot in MK2−/− MEF; conditions: TGFβ 1 ng/mL for 24 hours
Method: as §2, §3

[9] = SB-203580 1 μM, measured at 6 hours
[10] = greatest after 6 hours, baseline by 24 hours

| Compound | block of TGFβ activation of SRE-luciferase promoter [1, 9] | block of TGFβ activation of SRE-luciferase promoter [2, 9] | smα-actin protein level [3] | procollagen type I α1 mRNA level [4] | smα mRNA level [5] | procollagen type I α1 mRNA level [6] | smα mRNA level [7] | SRE-luciferase promoter activity [1, 10] | SRE-luciferase promoter activity [2, 10] | smα-actin protein level [8] |
| --- | --- | --- | --- | --- | --- | --- | --- | --- | --- | --- |
| C[S+]([O-])c1ccc(-c2nc(-c3ccncc3)c(-c3ccc(F)cc3)[nH]2)cc1 (stereo not shown) [SB-203580, reference compound] | partially blocked | completely blocked | – | – | – | – | – | – | – | – |
| TGFβ | – | – | smα-actin level increased; also recorded: produce more sma | did not appear to alter | significantly reduced; also recorded: significantly decreased | did not appear to alter; also recorded: did not suppress | increased; also recorded: appeared to increase | SRE promoter activity increased; also recorded: caused activation | SRE promoter activity increased; also recorded: caused activation | did not respond to TGFβ by increasing smα-actin; also recorded: produce even less smα |
